Results from patent publication US20240343729A1 (priority 2021, published 2024).

Columns and labels:
Human PDE10A2 [1] = molecular target: T1, Human PDE10A2 (Homo sapiens (Human), UniProt Q9Y233); experiment: biochemical; assay type: biochemical; conditions: human PDE10A2 0.25 nM, cGMP 3 μM
Description: Semi Log compound dilutions starting at a final concentration of 50 μM were dispensed into a black 384 well plate alongside, DMSO and an Inhibited control using the Echo Acoustic dispenser. […] Data was analysed using a 4-parameter fit.

Human PDE10A2 [2] = molecular target: T1, Human PDE10A2; experiment: cell-based; conditions: Forskolin 10 μM; read-out: cAMP HTRF Assay in HEK 293 rhPDE10A2 cell line (pIC50) (converted)
Description: Semi log compound dilutions starting at a final concentration of 10 μM were dispensed into a white 384 well plate, alongside DMSO and an Inhibited control using the Tecan D300e digital dispenser. HEK 293 cells overexpressing recombinant human PDE10A2 were seeded on top of the compounds at 2500 cells/well in a volume 5 μL/well. The plate was incubated at room temperature for 60 minutes. To induce endogenous cAMP, 5 μL/well of Forskolin at a final assay concentration of 10 μM was added to the plate. The plate was incubated at room temperature for a further 45 minutes. cAMP HTRF detection reagents were added, and the plate was incubated for 60 minutes at room temperature. […] Data was analysed using a 4-parameter fit.

T1 sequence (Q9Y233 267-1055): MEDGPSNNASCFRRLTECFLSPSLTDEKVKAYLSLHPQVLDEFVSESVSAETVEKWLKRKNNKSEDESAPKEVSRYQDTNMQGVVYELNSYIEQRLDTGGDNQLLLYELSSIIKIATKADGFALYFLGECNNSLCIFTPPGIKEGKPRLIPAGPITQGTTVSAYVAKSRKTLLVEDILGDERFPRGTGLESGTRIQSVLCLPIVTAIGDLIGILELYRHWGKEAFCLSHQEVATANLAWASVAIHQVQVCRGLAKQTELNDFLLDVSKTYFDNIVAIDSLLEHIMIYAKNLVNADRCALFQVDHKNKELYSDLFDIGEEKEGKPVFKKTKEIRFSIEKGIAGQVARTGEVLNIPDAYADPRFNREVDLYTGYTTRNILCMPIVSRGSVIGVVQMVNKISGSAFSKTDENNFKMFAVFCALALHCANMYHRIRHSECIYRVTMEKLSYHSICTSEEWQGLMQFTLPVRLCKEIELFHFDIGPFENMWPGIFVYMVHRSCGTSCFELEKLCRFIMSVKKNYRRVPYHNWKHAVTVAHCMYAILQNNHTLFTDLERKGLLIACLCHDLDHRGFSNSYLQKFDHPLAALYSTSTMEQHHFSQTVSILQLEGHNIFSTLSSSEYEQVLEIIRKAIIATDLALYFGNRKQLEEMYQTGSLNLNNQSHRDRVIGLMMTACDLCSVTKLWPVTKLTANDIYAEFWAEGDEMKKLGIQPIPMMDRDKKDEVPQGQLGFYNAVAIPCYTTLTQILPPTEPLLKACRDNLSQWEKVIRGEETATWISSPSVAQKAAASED

Compound	PDE10A2 Phosphate Sensor Enzyme Assay (pIC50) (Human PDE10A2 [1])	IC50 (Human PDE10A2 [2]) [nM]
CC(C)n1ncc2c(N3C[C@H]4COC[C@H]4C3)nc(C#Cc3nc(-c4ccccc4)cn3C)nc21 [Example 18, (3aR,6aS)-5-(1-isoPropyl-6-((1-methyl-4-phenyl-1H-imidazol-2-yl)ethynyl)-1H-pyrazolo[3,4-d]pyrimidin-4-yl)hexahydro-1H-furo[3,4-c]pyrrole]	9.99	0.617
C(#Cc1nc(-c2ccccc2)c[nH]1)c1nc(N2C[C@H]3COC[C@H]3C2)c2cnn(C3COC3)c2n1 [Example 27, (3aR,6aS)-5-(1-(Oxetan-3-yl)-6-((4-phenyl-1H-imidazol-2-yl)ethynyl)-1H-pyrazolo[3,4-d]pyrimidin-4-yl)hexahydro-1H-furo[3,4-c]pyrrole]	9.49	32.4
Cn1cc(-c2ccccc2)nc1C#Cc1nc(N2CCS(=N)(=O)CC2)c2cnn(C)c2n1 [Example 24, 1-Imino-4-(1-methyl-6-((1-methyl-4-phenyl-1H-imidazol-2-yl)ethynyl)-1H-pyrazolo[3,4-d]pyrimidin-4-yl)-1l6-thiomorpholine 1-oxide]	10.10	1.2
C[C@H]1COCCN1c1nc(C#Cc2nc(-c3ccccc3)cn2C)nc2c1CCNC2 [Example 13, (3S)-3-Methyl-4-[2-[2-(1-methyl-4-phenyl-imidazol-2-yl)ethynyl]-5,6,7,8-tetrahydropyrido[3,4-d]pyrimidin-4-yl]morpholine]	8.92	> 1000
Cn1cnc2c(N3C[C@H]4COC[C@H]4C3)nc(C#Cc3nc(-c4cccnc4)c[nH]3)nc21 [Example 31, (3aR,6aS)-5-(9-Methyl-2-((4-(pyridin-3-yl)-1H-imidazol-2-yl)ethynyl)-9H-purin-6-yl)hexahydro-1H-furo[3,4-c]pyrrole]	8.95	3.98
CCn1ncc2c(N3C[C@H]4COC[C@H]4C3)nc(C#Cc3nc(-c4ccccc4)cn3C)nc21 [Example 17, (3aR,6aS)-5-(1-Ethyl-6-((1-methyl-4-phenyl-1H-imidazol-2-yl)ethynyl)-1H-pyrazolo[3,4-d]pyrimidin-4-yl)hexahydro-1H-furo[3,4-c]pyrrole]	10.50	0.331
Cn1cnc2c(N3CC4(COC4)C3)nc(C#Cc3nc(-c4ccccc4)cn3CC3CCOCC3)nc21 [Example 4, 6-[9-Methyl-2-[2-[4-phenyl-1-(tetrahydropyran-4-ylmethyl)imidazol-2-yl]ethynyl]purin-6-yl]-2-oxa-6-azaspiro[3.3]heptane]	9.00	6.31
C[C@@H]1COCCN1c1nc(C#Cc2nc(-c3ccccc3)cn2C)nc2c1CCNC2 [Example 12, (3R)-3-Methyl-4-[2-[2-(1-methyl-4-phenyl-imidazol-2-yl)ethynyl]-5,6,7,8-tetrahydropyrido[3,4-d]pyrimidin-4-yl]morpholine]	10.40	0.437
Cn1cc(-c2ccccc2)nc1C#Cc1nc(N2CC3(COC3)C2)c2cnn(C3CCOCC3)c2n1 [Example 6, 6-[6-[2-(1-Methyl-4-phenyl-imidazol-2-yl)ethynyl]-1-tetrahydropyran-4-yl-pyrazolo[3,4-d]pyrimidin-4-yl]-2-oxa-6-azaspiro[3.3]heptane]	9.20	14.8
C[C@H]1COCCN1c1nc(C#Cc2nc(-c3ccccc3)c[nH]2)nc2c1ncn2C [Example 30, (S)-3-Methyl-4-(9-methyl-2-((4-phenyl-1H-imidazol-2-yl)ethynyl)-9H-purin-6-yl)morpholine]	8.97	> 1000
Cn1cc(-c2ccccc2)nc1C#Cc1nc(N2C[C@H]3COC[C@H]3C2)c2cnn(C3COC3)c2n1 [Example 19, (3aR,6aS)-5-(6-((1-Methyl-4-phenyl-1H-imidazol-2-yl)ethynyl)-1-(oxetan-3-yl)-1H-pyrazolo[3,4-d]pyrimidin-4-yl)hexahydro-1H-furo[3,4-c]pyrrole]	9.41	11.2
C[C@@H]1COCCN1c1nc(C#Cc2nc(-c3cccnc3)c[nH]2)nc2c1ncn2C [Example 32, (R)-3-Methyl-4-(9-methyl-2-((4-(pyridin-3-yl)-1H-imidazol-2-yl)ethynyl)-9H-purin-6-yl)morpholine]	9.90	2.34
Cn1cc(-c2ccccc2)nc1C#Cc1nc2c(c(N3CCOCC3)n1)CCN(C1COC1)C2 [Example 14, 4-[2-[2-(1-Methyl-4-phenyl-imidazol-2-yl)ethynyl]-7-(oxetan-3-yl)-6,8-dihydro-5H-pyrido[3,4-d]pyrimidin-4-yl]morpholine]	9.35	1.78
Cn1cc(-c2ccccc2)nc1C#Cc1nc(N2CC3(COC3)C2)c2ncn(C)c2n1 [Example 1, 6-[9-Methyl-2-[2-(1-methyl-4-phenyl-imidazol-2-yl)ethynyl]purin-6-yl]-2-oxa-6-azaspiro[3.3]heptane]	9.26	1.17
Cn1cc(-c2ccccc2)nc1C#Cc1nc(N2C[C@H]3COC[C@H]3C2)c2ncn(C)c2n1 [Example 20, (3aR,6aS)-5-(9-Methyl-2-((1-methyl-4-phenyl-1H-imidazol-2-yl)ethynyl)-9H-purin-6-yl)hexahydro-1H-furo[3,4-c]pyrrole]	9.53	8.71
Cn1cc(-c2ccccc2)nc1C#Cc1nc(N2C[C@H]3COC[C@H]3C2)c2cnn(CC3CC3)c2n1 [Example 16, (3aR,6aS)-5-(1-(Cyclopropylmethyl)-6-((1-methyl-4-phenyl-1H-imidazol-2-yl)ethynyl)-1H-pyrazolo[3,4-d]pyrimidin-4-yl)hexahydro-1H-furo[3,4-c]pyrrole]	10.10	4.17
C[C@@H]1COCCN1c1nc(C#Cc2nc(-c3ccccc3)cn2C)nc2c1ncn2C [Example 21, (R)-3-Methyl-4-(9-methyl-2-((1-methyl-4-phenyl-1H-imidazol-2-yl)ethynyl)-9H-purin-6-yl)morpholine]	10.30	0.417
C[C@H]1COCCN1c1nc(C#Cc2nc(-c3ccccc3)cn2C)nc2c1ncn2C [Example 22, (S)-3-Methyl-4-(9-methyl-2-((1-methyl-4-phenyl-1H-imidazol-2-yl)ethynyl)-9H-purin-6-yl)morpholine]	9.22	
C(#Cc1nc(-c2ccccc2)c[nH]1)c1nc(N2C[C@H]3COC[C@H]3C2)c2cnn(CC3CC3)c2n1 [Example 26, (3aR,6aS)-5-(1-(Cyclopropylmethyl)-6-((4-phenyl-1H-imidazol-2-yl)ethynyl)-1H-pyrazolo[3,4-d]pyrimidin-4-yl)hexahydro-1H-furo[3,4-c]pyrrole]	9.99	
CC(C)n1ncc2c(N3C[C@H]4COC[C@H]4C3)nc(C#Cc3nc(-c4ccccc4)c[nH]3)nc21 [Example 25, (3aR,6aS)-5-(1-isoPropyl-6-((4-phenyl-1H-imidazol-2-yl)ethynyl)-1H-pyrazolo[3,4-d]pyrimidin-4-yl)hexahydro-1H-furo[3,4-c]pyrrole]	9.95	
